Results taken from US20140322076A1, “ANTIMICROBIAL COMPOSITION” (priority 2011, published 2014).

How the values were obtained:
[1] = test system: Escherichia coli (10536 strain); assay: Antimicrobial efficacy, 15 seconds contact suspension assay (Examples 1 and 3); format: cell-based; conditions: contact time 15 seconds; for NMBS (mean bacterial survival): phenol and terpineol concentration (% w/v) as given per example, 0 = complete kill, triplicate; for NMBS: Example 3, gamma-terpineol, concentrations (% w/v) as given per example
Experimental: The efficacies of antimicrobial agents can be usefully compared by determining the Minimum Biocidal Concentration (MBC). The MBC is defined as the lowest absolute concentration of the particular active that provides complete kill (zero bacterial growth).
ΣFBC=FBC(component 1)+FBC(component 2)+FBC(component 3)+ . . . etc
such that • ΣFBC≧1 corresponds to additive or antagonistic bactericidal activity • ΣFBC<1 corresponds to synergistic bactericidal activity
Antimicrobial efficacy is tested against a representative pathogenic bacterial organism, Gram negative Escherichia coli. Concentrations of actives are expressed in terms of the percentage weight/volume (% w/v) throughout Example 1.
An overnight culture of Escherichia coli (10536 strain) was prepared in 50 ml total volume of TSB broth, grown for ca. 18 hrs at 37° C. and shaken at 150 rpm. 1 ml of this overnight E. coli culture was transferred to 50 ml of fresh TSB broth and incubated at 37° C. at 150 rpm for ca. 4 hours. This culture was separated into equal volumes and centrifuged at 4000 rpm for 15 minutes, washed with sterile saline (0.85% NaCl), centrifuged once more and re-suspended in saline to give a final concentration of 0.8 OD620 equivalent to about 10^8 cells per millilitre for this particular organism. Here, OD620 indicates the absorbance of a sample in a cuvette of 1.0 cm path length at a wavelength of 620 nm. This bacterial stock was used for assaying against antimicrobial actives (in triplicate).
The following assay describes the testing of 8 materials using 6 dilutions across half of a 96-well micro titre plate (MTP). Using this approach it is possible to assay 16 actives (without replicates) with one full dilution plate, replicating this set up in two halves of the plate columns, 1-6 and 7-12.
1M solutions of the test actives were prepared in dimethylsulphoxide (DMSO).
Aliquots (270 μl) of the materials at 1.11 times the final concentration were dispensed into the wells of the MTP along one column (A1-H1). This MTP was labelled as the “Screening plate”.
In another MTP, labelled as the “Dilution plate”, 270 μl of D/E neutralising solution from DIFCO Composition was added to column 1. The composition of the neutralising solution was as follows: pancreatic digest of casein, 5.0 g/L; Yeast Extract, 2.5 g/L; Dextrose, 10 g/L, sodium thioglycollate, 1.0 g/L, sodium thiosulphate, 6.0 g/L; sodium bisulphite, 2.5 g/L; Polysorbate 80, 5.0 g/L; lecithin 7.0 g/L; bromocresol purple, 0.02 g/L with a pH in the range 7.6±0.2.
270 μl of tryptone diluent solution was added to all the remaining wells of the Dilution MTP (columns 2-6).
Bacterial stock (30 μl) was then added to the prepared 270 μl of the solution of actives in the Screening Plate and mixed, using a multichannel pipette with 8 tips to aspirate and dispense the same volume of bacterial stock in parallel to 8 wells in rows A-H. After a contact time of 15 seconds, the mixtures were quenched by transferring 30 μl volumes of the mixtures into the 270 μl D/E neutralising solution in the prepared dilution plate, using aspiration to mix. After exactly 5 minutes in the D/E neutralising solution, 30 μl volumes were transferred from column 1 to column 2 of the Dilution MTP and mixed, before transferring further 30 μl volumes from column 2 into column 3. This process was repeated serially diluting the bacteria across the plate to column 6.
30 μl volumes from each well in the Dilution MTP were transferred onto pre-labelled segment of Tryptone Soya Agar (TSA) plates starting from the lowest bacterial concentration (highest dilution, column 6) to the highest bacterial concentration (column 1). The TSA plates were allowed to stand for ca. 2 hours so that the 30 μl inocula spots could dry and the plates were then inverted and incubated overnight at 37° C. before enumerating the bacterial colonies at the labelled dilutions to determine the effects of the actives on bacterial growth.

[2] = test system: Escherichia coli (E. coli - ATCC #10536); assay: Automated assessment of efficacy in surfactant base (Example 4); format: cell-based; conditions: 15 seconds exposure; for DeltaOD (450 nm) Mean: OD450 (16 hours) − OD450 (time zero), 2.85% sodium cocoyl glycinate + 1.85% sodium lauroamphoacetate; for DeltaOD (450 nm) Mean / DeltaOD (590 nm) Mean: pH 10; for DeltaOD (590 nm) Mean: OD590 (16 hours) − OD590 (time zero), same surfactant solution; for Nrep = No. of replicates showing growth (out of 4): surfactant solution pH 10
Experimental: In these examples, the efficacy of combinations of isopropylmethylphenols and terpineol were tested in a surfactant cleansing formulation comprising 2.85% sodium cocoyl glycinate and 1.85% sodium lauroamphoacetate. This corresponds to a 50% in use dilution with water of a typical neat formulation containing 5.7% cocoyl glycinate and 3.7% % sodium lauroamphoacetate during hand washing. Solutions were prepared such that the concentrations of the surfactant components and test actives were 1.1 times the final desired concentration in order to allow for dilution with the bacterial inoculum in the test. The solutions were manually adjusted to pH 10.0 by dropwise addition of sodium hydroxide solution, as measured with a pH meter at ambient temperature. Solutions of the isopropylmethylphenols and/or terpineols were prepared at a maximum of 24 hours before testing. The same terpineol was used as in Example 1.
The efficacy of the combinations of the present invention was determined against the same bacterium as in Example 1, Escherichia coli (E. coli—ATCC #10536), at a concentration of approximately 1×10^8 bacteria per mL.
Tests were conducted using standard microtiter plate assays using an automated liquid handling system. 270 μl of the surfactant test solution was pipetted into each well of the microtitre plate (Nunc F Gamma Irradiated 96F untreated microtitre plates of clear polystyrene) and 30 μl of the bacterial suspension was then added. After exactly 15 seconds of bacterial exposure, a 30 μl volume of bacterial cells was withdrawn and transferred to 270 μl of D/E quench solution. After 5 minutes in the D/E quench, the optical density (OD) was measured for each plate in turn at two specific wavelengths (450 nm and 590 nm). These provide a dual check of antimicrobial activity, as the OD450 reading is specific for the yellow colour of D/E quench when bacterial growth is observed, whereas OD590 is specific for the initial purple colour of the D/E quench which is retained if no bacterial growth is observed. After the time zero OD measurements, plates were then incubated at 37° C. overnight (16 hours) before repeating the OD measurements. Delta OD values were calculated by subtracting […] at time=16 hours.
Bacterial growth is observed as an increase in OD450 and a decrease in OD590. To identify antibacterially efficacious systems (those preventing appreciable bacterial growth after incubation), the following threshold changes in OD readings have been adopted: if (1). OD450 increases by less than 0.2 absorbance unit (AU) on incubation and (2). OD590 decreases by less than 0.35 AU on incubation. Conversely, where OD450 increases by more than 0.1 AU and OD590 decreases by more than 0.1 AU after incubation, corresponding to a colour shift from purple to yellow, the test system allows bacterial growth and is not deemed efficacious. Four replicate measurements in the same plate have been made for each test system. The number of replicate wells showing either bacterial growth or no growth is also readily assessed by eye by following the colour change. Thymol and terpineol were tested both alone and in combination for comparison purposes.
In each case, binary mixtures were assessed in the weight to weight ratio isopropylmethylphenol to alpha terpineol of 1:2.5.

## Cc1ccc(C(C)C)c(O)c1 [1:1, thymol]
[1]
  NMBS (mean bacterial survival): 0 log CFU/ml

## Cc1ccc(C(C)C)c(O)c1 [1:2, thymol]
[1]
  NMBS (mean bacterial survival): 0 log CFU/ml

## Cc1ccc(C(C)C)c(O)c1 [1:3, thymol]
[1]
  NMBS (mean bacterial survival): >7 log CFU/ml

## CC1=CCC(O)(C(C)C)CC1 (centres unmarked) [1:4, terpineol]
[1]
  NMBS (mean bacterial survival): 0 log CFU/ml

## CC1=CCC(O)(C(C)C)CC1 (centres unmarked) [1:5, terpineol]
[1]
  NMBS (mean bacterial survival): 0 log CFU/ml

## CC1=CCC(O)(C(C)C)CC1 (centres unmarked) [1:6, terpineol]
[1]
  NMBS (mean bacterial survival): 7 log CFU/ml

## CC1=CCC(O)(C(C)C)CC1 (centres unmarked) [1:7, terpineol]
[1]
  NMBS (mean bacterial survival): 7 log CFU/ml

## Cc1cc(O)cc(C(C)C)c1 [1:8, 3-isopropyl-5-methylphenol]
[1]
  NMBS (mean bacterial survival): 0 log CFU/ml

## Cc1cc(O)cc(C(C)C)c1 [1:9, 3-isopropyl-5-methylphenol]
[1]
  NMBS (mean bacterial survival): 7.6 log CFU/ml

## Cc1cc(O)ccc1C(C)C [1:12, 4-isopropyl-3-methylphenol]
[1]
  NMBS (mean bacterial survival): 0 log CFU/ml

## Cc1cc(O)ccc1C(C)C [1:13, 4-isopropyl-3-methylphenol]
[1]
  NMBS (mean bacterial survival): 7.6 log CFU/ml

## CC(C)=C1CCC(C)(O)CC1 (centres unmarked) [3:1, gamma-terpineol]
[1]
  NMBS: 0 log CFU/ml

## CC(C)=C1CCC(C)(O)CC1 (centres unmarked) [3:2, gamma-terpineol]
[1]
  NMBS: 0 log CFU/ml

## CC(C)=C1CCC(C)(O)CC1 (centres unmarked) [3:3, gamma-terpineol]
[1]
  NMBS: 0 log CFU/ml

## Cc1ccc(C(C)C)c(O)c1 [4:2, thymol]
[2]
  DeltaOD (450 nm) Mean: −0.54
  DeltaOD (590 nm) Mean: 0.64
  Nrep = No. of replicates showing growth (out of 4): 4

## Cc1ccc(C(C)C)c(O)c1 [4:3, thymol]
[2]
  DeltaOD (450 nm) Mean: −0.54
  DeltaOD (590 nm) Mean: 0.56
  Nrep = No. of replicates showing growth (out of 4): 4

## Cc1ccc(C(C)C)c(O)c1 [4:4, thymol]
[2]
  DeltaOD (450 nm) Mean: −0.57
  DeltaOD (590 nm) Mean: 0.55
  Nrep = No. of replicates showing growth (out of 4): 4

## Cc1ccc(C(C)C)c(O)c1 [4:5, thymol]
[2]
  DeltaOD (450 nm) Mean: −0.58
  DeltaOD (590 nm) Mean: 0.55
  Nrep = No. of replicates showing growth (out of 4): 4

## Cc1ccc(C(C)C)c(O)c1 [4:6, thymol]
[2]
  DeltaOD (450 nm) Mean: −0.58
  DeltaOD (590 nm) Mean: 0.54
  Nrep = No. of replicates showing growth (out of 4): 4

## Cc1ccc(C(C)C)c(O)c1 [4:7, thymol]
[2]
  DeltaOD (450 nm) Mean: −0.59
  DeltaOD (590 nm) Mean: 0.54
  Nrep = No. of replicates showing growth (out of 4): 4

## Cc1ccc(C(C)C)c(O)c1 [4:8, thymol]
[2]
  DeltaOD (450 nm) Mean: −0.58
  DeltaOD (590 nm) Mean: 0.55
  Nrep = No. of replicates showing growth (out of 4): 4

## Cc1ccc(C(C)C)c(O)c1 [4:9, thymol]
[2]
  DeltaOD (450 nm) Mean: −0.55
  DeltaOD (590 nm) Mean: 0.65
  Nrep = No. of replicates showing growth (out of 4): 4

## CC1=CCC(O)(C(C)C)CC1 (centres unmarked) [4:10, terpineol]
[2]
  DeltaOD (450 nm) Mean: −0.45
  DeltaOD (590 nm) Mean: 0.64
  Nrep = No. of replicates showing growth (out of 4): 4

## CC1=CCC(O)(C(C)C)CC1 (centres unmarked) [4:11, terpineol]
[2]
  DeltaOD (450 nm) Mean: −0.47
  DeltaOD (590 nm) Mean: 0.59
  Nrep = No. of replicates showing growth (out of 4): 4

## CC1=CCC(O)(C(C)C)CC1 (centres unmarked) [4:12, terpineol]
[2]
  DeltaOD (450 nm) Mean: −0.48
  DeltaOD (590 nm) Mean: 0.58
  Nrep = No. of replicates showing growth (out of 4): 4

## CC1=CCC(O)(C(C)C)CC1 (centres unmarked) [4:13, terpineol]
[2]
  DeltaOD (450 nm) Mean: −0.51
  DeltaOD (590 nm) Mean: 0.57
  Nrep = No. of replicates showing growth (out of 4): 4

## CC1=CCC(O)(C(C)C)CC1 (centres unmarked) [4:14, terpineol]
[2]
  DeltaOD (450 nm) Mean: −0.54
  DeltaOD (590 nm) Mean: 0.56
  Nrep = No. of replicates showing growth (out of 4): 4

## CC1=CCC(O)(C(C)C)CC1 (centres unmarked) [4:15, terpineol]
[2]
  DeltaOD (450 nm) Mean: −0.56
  DeltaOD (590 nm) Mean: 0.55
  Nrep = No. of replicates showing growth (out of 4): 4

## CC1=CCC(O)(C(C)C)CC1 (centres unmarked) [4:16, terpineol]
[2]
  DeltaOD (450 nm) Mean: −0.57
  DeltaOD (590 nm) Mean: 0.55
  Nrep = No. of replicates showing growth (out of 4): 4

## CC1=CCC(O)(C(C)C)CC1 (centres unmarked) [4:17, terpineol]
[2]
  DeltaOD (450 nm) Mean: −0.53
  DeltaOD (590 nm) Mean: 0.67
  Nrep = No. of replicates showing growth (out of 4): 4

## Cc1cc(O)cc(C(C)C)c1 [4:18, 3-isopropyl-5-methylphenol]
[2]
  DeltaOD (450 nm) Mean: −0.54
  DeltaOD (590 nm) Mean: 0.63
  Nrep = No. of replicates showing growth (out of 4): 4

## Cc1cc(O)cc(C(C)C)c1 [4:19, 3-isopropyl-5-methylphenol]
[2]
  DeltaOD (450 nm) Mean: −0.53
  DeltaOD (590 nm) Mean: 0.58
  Nrep = No. of replicates showing growth (out of 4): 4

## Cc1cc(O)cc(C(C)C)c1 [4:20, 3-isopropyl-5-methylphenol]
[2]
  DeltaOD (450 nm) Mean: −0.56
  DeltaOD (590 nm) Mean: 0.57
  Nrep = No. of replicates showing growth (out of 4): 4

## Cc1cc(O)cc(C(C)C)c1 [4:21, 3-isopropyl-5-methylphenol]
[2]
  DeltaOD (450 nm) Mean: −0.57
  DeltaOD (590 nm) Mean: 0.56
  Nrep = No. of replicates showing growth (out of 4): 4

## Cc1cc(O)ccc1C(C)C [4:26, 4-isopropyl-3-methylphenol]
[2]
  DeltaOD (450 nm) Mean: −0.46
  DeltaOD (590 nm) Mean: 0.67
  Nrep = No. of replicates showing growth (out of 4): 4

## Cc1cc(O)ccc1C(C)C [4:27, 4-isopropyl-3-methylphenol]
[2]
  DeltaOD (450 nm) Mean: −0.48
  DeltaOD (590 nm) Mean: 0.58
  Nrep = No. of replicates showing growth (out of 4): 4
